Entries after “also recorded” stand apart in the source; their conditions may differ.
Tests used:
[1] = biological target: T1, alpha-synuclein/Synapsin III interaction (Homo sapiens, UniProt O14994+P37840); assay: FLIM-FRET (donor lifetime) of alpha-synuclein/Synapsin III interaction in SK-N-SH cells; type: cell-based; details: 10 μM, 15 min after treatment
T1 construct: expressed in transfected cells; host or cells: neuronal-differentiated (retinoic acid) human SK-N-SH neuroblastoma cells, transient transfection with Lipofectamine 3000
Description: The ability of the different compound to stimulate alpha-synuclein/Synapsin III interaction was evaluated by acceptor photobleaching FRET or FLIM in neuronal-like cells. In particular, we used neuronal-differentiated SK—N—SH neuroblastoma cells transiently transfected with red fluorescent protein (RFP)-tagged human wild type alpha-synuclein and green fluorescent protein (GFP)-tagged the human 63 kDa Synapsin III isoform.
The comparison of the lifetimes of the donor alone and in presence of the acceptor allows for precise and concentration-independent measurements of FRET efficiency. Fluorescence lifetime is defined as the average time that a fluorophore spends in the excited state after the absorption of light, prior to returning to the ground state by emitting a photon. Donor fluorescence lifetime is decreased when FRET occurs between the fluorophore pair. The comparison of the lifetimes of the donor alone and in presence of the acceptor allows for precise and concentration-independent measurements of FRET efficiency (Ishikawa-Ankerhold, H. C. et al. Molecules (Basel, Switzerland) 2012, 17, 4047-4132). Human neuroblastoma SK—N—SH cells were grown in complete medium comprising Dulbecco's modified Eagle's medium with 1000 mg glucose/l supplemented with 10% heat-inactivated fetal bovine serum, 100 μg/ml penicillin and 100 μg/ml streptomycin. Cells were maintained at 37° C. under a humidified atmosphere of 5% CO2 and […]. For FRET/FLIM studies, SK—N—SH cells were seeded onto poli-D-lysine-coat 1.7 cm2 glass chamber (15000 cells per well) and were maintained in differentiation medium for ten days by daily adding 10 μM retinoic acid to the medium. […] The time-domain FLIM was measured using a Time-Correlated Single Photon Counting (TCSPC) (PicoQuant) operated with SymPhoTime 64 software (PicoQuant). […] The images of GFP fluorescence generated in ZEN software were stored and processed with SymPhoTime 64. The mean fluorescence intensities within cell body were determined using the ROI tool in SymPhoTime 64. […] The fluorescence lifetime analysis was performed in the SymPhoTime 64 software within the cell body, automatically recognized by the software as ROI 0. Individual photon arrivals were detected using a SPAD detector and events were recorded by a PicoHarp 300 TCSPC module. […] The percentage FLIM-FRET efficiency was calculated as: 100×[1−(lifetime of donor with FRET/lifetime of donor without FRET)]. For lifetime analysis, fifteen cells were recorded for each condition, included GFP alone.

[2] = test system: alpha-synuclein aggregation in SK—N—SH cells; assay: Alpha-synuclein aggregation after glucose deprivation in SK-N-SH alpha-synuclein stable clones (immunocytochemistry); type: cell-based, human
Description: Human neuroblastoma SK—N—SH full length (fl) alpha-synuclein stable clones were seeded onto poly-D-lysine-coated glass coverslides in 24-well plates and were grown in complete medium comprising Dulbecco's modified Eagle's medium with 1000 mg glucose/l supplemented with 10% heat-inactivated fetal bovine serum, 100 μg/ml penicillin and 100 μg/ml streptomycin. Cells were maintained at 37° C. under a humidified atmosphere of 5% CO2 and […]. At 80% confluence, cells underwent glucose deprivation (GD) in order to induce alpha-synuclein aggregation (Bellucci, A.; et al. Journal of neurochemistry 2008, 106, 560-577). Briefly, GD was performed through an incubation of the cells with Hank's balanced salt solution supplemented with 2 mM glutamine and 10% heat-inactivated fetal bovine serum, for 1 h at 37° C. […] After 24 h of treatment, cells were fixed by incubating for 15 min in 4% paraformaldehyde with 4% sucrose in 1 M PBS, pH 7.4. The fixed cells were then stored in PBS-containing 0.05% sodium azide. Slides were incubated for 1 h at room temperature in blocking solution [2% w/v bovine serum albumin (BSA) plus 3% v/v normal goat serum in PBS], then overnight at 4° C. with the primary antibody (Syn211 antibody against alpha-synuclein) at the optimal working dilution. On the following day, cells were incubated for 1 h at room temperature with the Cy3-conjugated secondary antibody diluted in 0.1% Triton X-100 PBS plus BSA 1 mg/ml. Finally, cell nuclei were counterstained with Hoechst 33258 dye, and the coverslips were mounted onto glass slides using Vectashield.

[3] = test system: alpha-synuclein aggregation in primary mesencephalic neurons; assay: Alpha-synuclein aggregation in primary mouse midbrain neurons exposed to glucose deprivation; type: cell-based
[4] = test system: SYN120 tg mice; assay: Open-field motility after acute i.p. injection in SYN120 tg mice; type: in vivo, mouse; details: acute i.p. 10 mg/kg, 12 month-old SYN120 tg mice
Description: We investigated the ability of compound I-threo to stimulate the motility of Parkinson's disease mice more efficiently that MPH. […] All experiments were made in accordance with Directive 2010/63/EU of the European Parliament and of the Council of 22 Sep. 2010 on the protection of animals used. All experimental procedures conformed to the National Research Guide for the Care and Use of Laboratory Animals and were approved by the Animal Research Committees of the University of Brescia (Protocol Permit 719/2015-PR). Three different groups of 12 month-old SYN120 tg mice (N=3 animals per group) were used for the motility assay by using the open-field behavioural paradigm. The motility of the animals in the open-field arena was registered and analysed by using the Any-Maze system. […] The total distance travelled by the mice during 2.5 minutes intervals was plotted on graphs.

T1 sequence (O14994 whole entry, one chain of several): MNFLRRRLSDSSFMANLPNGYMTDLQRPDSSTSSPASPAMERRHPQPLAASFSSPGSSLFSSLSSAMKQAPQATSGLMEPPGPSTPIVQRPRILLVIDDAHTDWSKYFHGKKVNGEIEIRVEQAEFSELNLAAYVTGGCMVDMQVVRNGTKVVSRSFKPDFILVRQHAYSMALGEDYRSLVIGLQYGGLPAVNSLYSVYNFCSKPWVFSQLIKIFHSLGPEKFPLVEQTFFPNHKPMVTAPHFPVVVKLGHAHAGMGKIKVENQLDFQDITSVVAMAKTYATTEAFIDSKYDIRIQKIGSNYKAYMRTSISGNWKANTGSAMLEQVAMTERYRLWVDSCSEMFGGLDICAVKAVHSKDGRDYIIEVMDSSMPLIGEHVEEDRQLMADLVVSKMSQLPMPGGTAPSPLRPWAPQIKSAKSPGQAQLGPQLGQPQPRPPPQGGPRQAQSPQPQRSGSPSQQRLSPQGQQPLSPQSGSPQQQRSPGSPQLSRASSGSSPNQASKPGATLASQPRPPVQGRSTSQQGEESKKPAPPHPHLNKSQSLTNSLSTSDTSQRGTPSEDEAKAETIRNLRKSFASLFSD

Compound | stimulation of alpha-synuclein/Synapsin III interaction (FLIM), in words [1] | % decrease of tau amplitude (donor lifetime) vs MPH treated cells [1] [%] | % decrease of tau amplitude (donor lifetime) vs untreated cells [1] [%] | alpha-synuclein aggregates seen in images after GD ([2]; 10 μM, 24 h, vs non-treated (NT) cells, preliminary) | formation of alpha-synuclein inclusions after GD (immunofluorescence intensity and average particle size) ([2]; 10 μM, 24 h after 1 h glucose deprivation, vs untreated, hydrochloride) | EC50 ([2]; Homo sapiens, SK-N-SH cells, read-out: EC50 in reducing alpha-synuclein aggregation) [nM] | efficacy (% effect) in reducing alpha-synuclein aggregation, compared with MPH ([2]; SK-N-SH cells) | EC50 fold lower than that of MPH ([2]; SK-N-SH cells, I-threo vs MPH) [fold] | alpha-synuclein inclusion formation (total immunofluorescence intensity and particle size) ([3]; I-threo, VI-threo 50 and 100 nM, MPH 100 nM, hydrochloride) | efficiency higher than that of MPH ([3]; primary neurons) | motility (total distance travelled) in open field arena [4]
COC(=O)[C@H](c1ccc(C)cc1)C1CCCCN1.Cl (stereo partly drawn) [I-erythro] | did not stimulate alpha-synuclein/Synapsin III interaction |  |  |  |  |  |  |  |  |  | 
COC(=O)[C@@H](c1ccc(C)cc1)C1CCCCN1.Cl (stereo partly drawn) [I-threo, threo methyl 2-(piperidin-2-yl)-2-(p-tolyl)acetate hydrochloride] | able to promote alpha-synuclein/synapsin III interaction | -8.4 | -11.95 | no aggregates were observed | significantly reduce the formation of alpha-synuclein inclusions; also recorded: significantly reduce alpha-synuclein aggregation in vitro | 431 | almost comparable | 200 | significantly reduce alpha-synuclein inclusion formation; also recorded: efficiently hinders alpha-synuclein aggregation | 50-70% | improve the motility of SYN120 tg mice more efficiently than MPH
